# Source: patent publication US8809314B1, “Cephalosporin compound” (Cubist Pharmaceuticals, Inc., priority 2012, dated 2014)
# Where “and” joins values, the source holds several entries; their conditions need not be identical. Equal values may be shown once.
# Columns and labels:
# [1] = test system: ceftazidime-resistant Pseudomonas aeruginosa #2545; format: in vivo; details: Pa #2545; CD-1 mice, IP inoculum, 2 SC doses at 1 and 6 hrs, 7 day survival
# Method: (§1) In vivo efficacy of (I) was evaluated against strains of MRSA, and ceftazidime-resistant Pa and Klebsiella pneumonia (Kpn) in mouse septicemia, thigh and lung infections. Septicemia: CD-1 mice received lethal bacterial inocula IP, followed by 2 doses of antibiotics SC at 1 and 6 hrs post-inoculation. Dose calculated to protect 50% of the mice (PD50) was derived based on probit analysis of percentage survival. Thigh and lung infections: Thighs or lungs of neutropenic mice were inoculated with MRSA or Pa. Two treatment doses were given SC at 1 and 6 hrs post-inoculation. Tissues were harvested at ˜24 hrs post-inoculation and bacterial burdens quantified.
# (§2) II. Methods • A. Animals: Six week-old, specific pathogen free, female CD-1 mice purchased from Charles River Laboratories (Wilmington, Mass.) were used for all studies after acclimation in Cubist animal facility. […] MIC was determined in MHB by standard CLSI microdilution. […] The survival of animals was recorded daily for 7 days. The antibiotic dose calculated to protect 50% of the mice (PD50) was derived based on probit analysis of percentage survival. • E. Mouse Thigh and Lung Infections: Mice were rendered neutropenic by two IP injections of cyclophosphamide 4 days (150 mg/kg) and 1 day (100 mg/kg) before bacterial inoculation. […] Tissue bacterial burdens were quantified by serial dilution and spiral plating of homogenates.
# [2] = test system: methicillin-resistant Staphylococcus aureus (MRSA); assay: MIC measured by the method of Example 3; format: cell-based; details: strain not named, read-out: MIC against methicillin-resistant Staphylococcus aureus (MRSA)
# Method: (§3) To prepare for MIC testing, individual colonies were isolated by streaking frozen glycerol material containing Staphylococcus or Pseudomonas spp. onto rich, non-selective, tryptic soy agar containing 5% sheep's blood (TSAB), and incubated at 37° C. for 18-24 hrs.
# (§4) On the day of testing, primary cultures were started by scraping off 5-10 colonies from the TSAB plates. The material was suspended in ˜5 mL of cation adjusted Mueller Hinton Broth (CAMHB) in 14 mL culture tubes and incubated at 37° C. with aeration (200 rpm) for ˜2 hrs until the OD600 was ≧0.1.
# (§5) Inoculum cultures were prepared by standardizing the primary cultures to OD600=0.1 and then adding 20 μL of the adjusted primary culture per 1 mL CAMHB for Pseudomonas and CAMHB plus 4% NaCl for MRSA so that the final inoculum density was ˜10^5 colony forming units per milliliter. Diluted inoculum cultures were used to inoculate 50 μL per well in 96 well broth microdilution assay plates. […]
# (§6) Plates were incubated for 18-20 hours at 37° C. with aeration (200 rpm). Following incubation, growth was confirmed visually placing plates over a viewing apparatus (stand with a mirror underneath) and then OD600 was measured using a SpectraMax 340PC384 plate reader (Molecular Devices, Sunnyvale, Calif.). Growth was defined as turbidity that could be detected with the naked eye or achieving minimum OD600 of 0.1. […]
# Pseudomonas aeruginosa = assay: MIC measured by the method of Example 3; format: cell-based; details: strain not named, read-out: MIC against Pseudomonas aeruginosa
# Method: as §3, §4, §5, §6
# MRSA #712 [3] = assay: Thigh infection in neutropenic mice; format: in vivo, Staphylococcus aureus; details: MRSA #712 thigh infection, neutropenic mice, 2 SC doses at 1 and 6 hrs, 24 h, vs vehicle
# Method: as §1
# (§7) II. Methods • A. Animals: Six week-old, specific pathogen free, female CD-1 mice purchased from Charles River Laboratories (Wilmington, Mass.) were used for all studies after acclimation in Cubist animal facility. All animal procedures were approved by the Cubist Institutional Animal Care and Use Committee. • B. Bacteria and In Vitro Susceptibility Testing: MRSA #712, Pseudomonas aeruginosa #2245 and #2545, and Klebsiella pneumoniae #573 are clinical isolates; Pseudomonas aeruginosa #44 is an ATCC strain (ATCC#27853). MIC was determined in MHB by standard CLSI microdilution. […] The survival of animals was recorded daily for 7 days. The antibiotic dose calculated to protect 50% of the mice (PD50) was derived based on probit analysis of percentage survival. • E. Mouse Thigh and Lung Infections: Mice were rendered neutropenic by two IP injections of cyclophosphamide 4 days (150 mg/kg) and 1 day (100 mg/kg) before bacterial inoculation. […] Tissue bacterial burdens were quantified by serial dilution and spiral plating of homogenates.
# [4] = test system: Pseudomonas aeruginosa #44 (ATCC#27853); assay: Mouse septicemia (systemic infection), PD50; format: in vivo; details: Pa #44 (ATCC27853); CD-1 mice, IP inoculum, 2 SC doses at 1 and 6 hrs, 7 day survival
# Method: as §1, §7
# (§8) III. […] The dose that protected 50% of the mice (PD50) was calculated by probit analysis based on percentage of mice surviving for 7 days post-inoculation. • C. […]
# Pa #44 (ATCC27853) = assay: MIC in MHB by standard CLSI microdilution (Example 4); format: cell-based; details: Pseudomonas aeruginosa
# From the text: (§9) II. Methods • A. Animals: Six week-old, specific pathogen free, female CD-1 mice purchased from Charles River Laboratories (Wilmington, Mass.) were used for all studies after acclimation in Cubist animal facility. All animal procedures were approved by the Cubist Institutional Animal Care and Use Committee. • B. Bacteria and In Vitro Susceptibility Testing: MRSA #712, Pseudomonas aeruginosa #2245 and #2545, and Klebsiella pneumoniae #573 are clinical isolates; Pseudomonas aeruginosa #44 is an ATCC strain (ATCC#27853). MIC was determined in MHB by standard CLSI microdilution. Comparator Antibiotics Used in Animal Studies: Vancomycin hydrochloride USP was purchased from Hospira (Lake Forest, Ill.); ceftazidime hydrate from Sigma; Primaxin (imipenem and cilastatin) from Merck; ceftaroline was synthesized at a CRO. • D. Mouse Septicemia: Mice received lethal inocula of bacteria in 6% hog gastric mucin intraperitoneally (IP), followed by two treatment doses of antibiotics via subcutaneous (SC) administration at 1 and 6 hrs post-inoculation. The survival of animals was recorded daily for 7 days. The antibiotic dose calculated to protect 50% of the mice (PD50) was derived based on probit analysis of percentage survival. • E. Mouse Thigh and Lung Infections: Mice were rendered neutropenic by two IP injections of cyclophosphamide 4 days (150 mg/kg) and 1 day (100 mg/kg) before bacterial inoculation. Thigh or lung infection was induced by an intramuscular injection of 0.2 mL or intranasal inoculation of 0.1 mL inoculum preparation from an overnight bacterial culture into left thigh or nares. Tissues from one group of mice receiving no treatment (No Rx) were harvested at 1 hr for determination of baseline of bacterial burden. The remaining mice received two treatment doses of vehicles or antibiotics given SC at 1 and 6 hrs post-inoculation. Tissues from the treated mice were harvested at ˜24 hrs post-inoculation. Tissue bacterial burdens were quantified by serial dilution and spiral plating of homogenates.
# Pa #2545 = assay: as above; format: cell-based; details: Pseudomonas aeruginosa
# From the text: as §9
# MRSA #712 [5] = assay: as above; format: cell-based; details: Staphylococcus aureus; MRSA #712; read-out: MIC
# From the text: as §9
# Kpn #573 = assay: as above; format: cell-based; details: Klebsiella pneumoniae; Kpn #573; read-out: MIC
# From the text: as §9
# MRSA #712 [6] = assay: Mouse septicemia (systemic infection), PD50; format: in vivo, Staphylococcus aureus; details: CD-1 mice, IP inoculum, 2 SC doses at 1 and 6 hrs, 7 day survival
# Method: as §1
# as §2, with “II.” for “II. Methods • A. Animals: Six week-old, specific pathogen free, female CD-1 mice purchased from Charles River Laboratories (Wilmington, Mass.) were used for all studies after acclimation in Cubist animal facility.”
# as §8
# [7] = test system: Klebsiella pneumoniae #573; assay: Mouse septicemia (systemic infection), PD50; format: in vivo; details: Kpn #573; CD-1 mice, IP inoculum, 2 SC doses at 1 and 6 hrs, 7 day survival
# Method: as §1, §2
structure (smiles),measurement,setting,value
CO/N=C(\C(=O)N[C@@H]1C(=O)N2C(C(=O)[O-])=C(C[n+]3ccc(N)c(NC(=O)Nc4ccc(CCNC(=N)N)cc4)c3)CS[C@H]12)c1nc(N)sc1Cl [(I)],Septicemia PD50 (± SE),[1],<10.4 mg/kg
same,MIC,[2],1 to 2 µg/mL
same,MIC,Pseudomonas aeruginosa,1 to 2 µg/mL
same,Thigh (T) ED−2log,MRSA #712 [3],68.9 mg/kg and 68.9 (T) mg/kg
same,Septicemia PD50 (± SE),[4],5.3 ± 0.7 mg/kg
same,MIC,Pa #44 (ATCC27853),1 µg/mL
same,MIC,Pa #2545,2 µg/mL
same,MIC,MRSA #712 [5],2 µg/mL
same,MIC,Kpn #573,1 µg/mL
same,Septicemia PD50 (± SE),MRSA #712 [6],2.0 ± 0.3 mg/kg
same,Septicemia PD50 (± SE),[7],<1.3 mg/kg
